Results published in patent US10849966B2, “Methods for treating netosis and neutrophil activation” (TRUSTEES OF BOSTON UNIVERSITY, priority 2017, dated 2020).
Entries after “also recorded” stand apart in the source; their conditions may differ.

Tests used:
[1] = system: chronic kidney disease in Tg25+ male rats; experiment: CKD in Tg25+ male rats fed a HSD; format: in vivo, rat; conditions: hu-6g8 3 mg/kg IV at D0, D7, D14 and D21, Mean ± SD
Panc1 xenograft = Panc1 xenograft model survival; conditions: in vivo
[2] = PK study in Panc1 xenograft mice; format: in vivo; conditions: 15 mg/kg i.v. (n=3)
[3] = system: DEspR+/CD11b+ neutrophils; experiment: ex vivo treatment of ARDS patient whole blood, neutrophil survival (FACS); format: cell-based, human; set-up: baseline DEspR+/CD11b+ neutrophil percentage: concentration or dose not given beside the values; conditions: for Observed decrease in neutrophil survival: 10 μg/ml; for baseline DEspR+/CD11b+ neutrophil percentage: equals baseline DEspR+/CD11b+ neutrophils
Procedure: Neutrophils were gated for unique size/granularity properties via FSC (size) and SSC (granularity) gating. […] FSC, forward side scatter. SSC, side scatter. N=4-5 replicates; mean+/−SD. Whole blood incubated at 37 C for 24 hours (reg incubator, rotating, in HEPES buffer) for A02 and A03. 37 C for 6 hours for A04, A05, and A06. ABTM-468(cho) at 10 ug/mL. *, P=0.0286 Mann-Whitney Rank Sum Test. ARDS patients survivors: A01, A04, A05, A06. ARDS non-survivor: A02.

[4] = complete blood counts in Panc1-CSC xenograft (CDX) tumor model; format: in vivo, rat; conditions: CBC weekly from day 21, vs non-treated controls
Procedure: Complete blood counts (CBC) were measured weekly starting day 21-1 week after treatment onset on day 14 (14 days after Panc1-CSC xenograft (CDX) tumor establishment).

[5] = system: chronic kidney disease in Dahl S female rats; experiment: CKD in Dahl S female rats fed a HSD; format: in vivo, rat; conditions: for albuminuria, effect in words / urinary albumin creatinine ratio (UACR), effect in words: 3 mg/kg iv × 1 dose, after 7 days, moderate-severe CKD; for Albuminuria / Creatinine Clearance / UACR (urinary albumin/urinary creatinine ratio) / Urinary Exosome Excretion: Mean ± SD
Excerpt: Legend: hu-6g8, humanized anti-DEspR monoclonal antibody, HSD, high salt diet induced via 2% NaCl water to drink ad lib; CKD, Dahl salt-sensitive hypertensive rats with chronic kidney disease with moderate nephrosclerosis (Raij scores˜300) induced with a high salt diet (2% NaCl); control, non-treated age- and sex-matched CKD rats.

## hu-6g8: fully humanized anti-DEspR mAb with a S228P hinge-stabilized IgG4/kappa FC region
[1]; D14
  Albuminuria: 217 ± 87 mg/kg/day
  Creatinine Clearance: 279 ± 82 µL/min
  UACR (urinary albumin/urinary creatinine ratio): 8309 ± 3731
  Urinary Exosome Excretion: 771 ± 220 mg/kg/day
[1]; D28
  Albuminuria: 164.8 ± 86 mg/kg/day
  Creatinine Clearance: 268 ± 30 µL/min
  UACR (urinary albumin/urinary creatinine ratio): 5567 ± 2210
  Urinary Exosome Excretion: 651 ± 191 mg/kg/day
Panc1 xenograft
  survival: increased survival
[2]
  half-life: 40.8 h
[3]; patient A02 (Died), incubation 24 hrs, 79 hrs from ARDS diagnosis, baseline DEspR+/CD11b+ 59.2%, P 0.029, listed as anti-DEspR humanized IgG4S228P antibody
  Observed decrease in neutrophil survival: decreased survival
[3]; patient A02
  baseline DEspR+/CD11b+ neutrophil percentage: 59.2%
[3]; patient A03 (DNR, D.), incubation 24 hrs, 96 hrs from diagnosis, baseline DEspR+/CD11b+ 1.5%
  Observed decrease in neutrophil survival: No effect
[3]; patient A03
  baseline DEspR+/CD11b+ neutrophil percentage: 1.5%
[3]; patient A04 (Surv), incubation 6 hrs, 96 hrs from diagnosis, baseline DEspR+/CD11b+ 0.9%, listed as ABTM-468
  Observed decrease in neutrophil survival: No effect
[3]; patient A04 (Surv), incubation 6 hrs, 96 hrs from diagnosis, baseline DEspR+/CD11b+ 0.9%, listed as anti-DEspR humanized IgG4S228P antibody
  Observed decrease in neutrophil survival: no effect
[3]; patient A04
  baseline DEspR+/CD11b+ neutrophil percentage: 0.9%
[3]; patient A05 (Surv), incubation 6 hrs, 72 hrs from diagnosis, baseline DEspR+/CD11b+ 3%, listed as ABTM-468
  Observed decrease in neutrophil survival: No effect
[3]; patient A05 (Surv), incubation 6 hrs, 72 hrs from diagnosis, baseline DEspR+/CD11b+ 3%, listed as anti-DEspR humanized IgG4S228P antibody
  Observed decrease in neutrophil survival: no effect
[3]; patient A05
  baseline DEspR+/CD11b+ neutrophil percentage: 3%
[3]; patient A06 (Surv), incubation 6 hrs, 48 hrs from diagnosis, baseline DEspR+/CD11b+ 16.1%, n.s., listed as anti-DEspR humanized IgG4S228P antibody
  Observed decrease in neutrophil survival: Some efficacy is observed but variable
[3]; patient A06
  baseline DEspR+/CD11b+ neutrophil percentage: 16.1%
[4]; treatment onset day 14
  numbers of quiescent neutrophils (neutropenia side effect): does not cause decreased numbers of quiescent neutrophils
[4]
  platelet counts: does not cause decreased platelet counts
  red blood cell counts: does not cause decreased platelet counts or red blood cell counts
[5]
  albuminuria, effect in words: decreased
  urinary albumin creatinine ratio (UACR), effect in words: decreased
[5]; listed as ABTM-468
  albuminuria, effect in words: decreased; also recorded: reduced
  urinary albumin creatinine ratio (UACR), effect in words: decreased; also recorded: reduced
[5]; D7 (day of dosing, baseline)
  Albuminuria: 404 ± 190 mg/kg/day
  Creatinine Clearance: 104 ± 35 µL/min
  UACR (urinary albumin/urinary creatinine ratio): 25450 ± 8980
  Urinary Exosome Excretion: 663 ± 224 mg/kg/day
[5]; D14, hu-6g8 3 mg/kg IV at D7
  Albuminuria: 92.5 ± 95 mg/kg/day
  Creatinine Clearance: 168 ± 118 µL/min
  UACR (urinary albumin/urinary creatinine ratio): 2285 ± 2337
  Urinary Exosome Excretion: 876 ± 348 mg/kg/day
